Data as given in patent US4221907A, “Substituted O-α-D and O-β-D-multi-galactopyranosyl and glucopyranosyl 1→4 and 1→6 galactopyranosyl 1→6 α-D-glucopyranoses” (American Cyanamid Company, priority 1979, dated 1980).
Structures can show the parent of a compound that is named as a salt.

Key:
complement system = conditions: reported, British Journal of Experimental Pathology, 33, 327-339 (1952); cited from earlier work
human C1 = human C1 (Homo sapiens, UniProt P09871); assay: Test Code 026 (C1 inhibitor): activated human C1 destroys fluid phase human C2 in presence of C4; assay type: biochemical; conditions: activity in wells, twofold serial dilution; higher well number indicates higher activity
Sequence of human C1 (P09871 16-688): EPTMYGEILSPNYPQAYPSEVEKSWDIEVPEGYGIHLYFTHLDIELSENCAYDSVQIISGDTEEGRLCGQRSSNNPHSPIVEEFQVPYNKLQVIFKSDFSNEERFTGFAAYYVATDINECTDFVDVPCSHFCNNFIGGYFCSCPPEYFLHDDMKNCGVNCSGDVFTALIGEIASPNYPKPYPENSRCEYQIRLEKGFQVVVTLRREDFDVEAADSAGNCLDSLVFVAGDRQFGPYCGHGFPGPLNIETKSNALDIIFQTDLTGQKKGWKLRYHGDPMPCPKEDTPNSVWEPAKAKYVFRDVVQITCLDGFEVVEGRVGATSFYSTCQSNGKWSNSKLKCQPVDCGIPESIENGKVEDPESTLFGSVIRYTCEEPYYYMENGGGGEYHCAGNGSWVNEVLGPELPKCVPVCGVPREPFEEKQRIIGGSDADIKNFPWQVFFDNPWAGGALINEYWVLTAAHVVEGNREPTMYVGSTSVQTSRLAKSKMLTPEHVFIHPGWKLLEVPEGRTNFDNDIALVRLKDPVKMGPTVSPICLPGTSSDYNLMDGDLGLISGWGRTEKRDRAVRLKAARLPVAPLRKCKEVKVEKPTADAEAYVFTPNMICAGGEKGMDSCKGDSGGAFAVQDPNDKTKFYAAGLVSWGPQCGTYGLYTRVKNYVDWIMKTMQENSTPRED
Sequence of human C1 (P00736 18-705 partner): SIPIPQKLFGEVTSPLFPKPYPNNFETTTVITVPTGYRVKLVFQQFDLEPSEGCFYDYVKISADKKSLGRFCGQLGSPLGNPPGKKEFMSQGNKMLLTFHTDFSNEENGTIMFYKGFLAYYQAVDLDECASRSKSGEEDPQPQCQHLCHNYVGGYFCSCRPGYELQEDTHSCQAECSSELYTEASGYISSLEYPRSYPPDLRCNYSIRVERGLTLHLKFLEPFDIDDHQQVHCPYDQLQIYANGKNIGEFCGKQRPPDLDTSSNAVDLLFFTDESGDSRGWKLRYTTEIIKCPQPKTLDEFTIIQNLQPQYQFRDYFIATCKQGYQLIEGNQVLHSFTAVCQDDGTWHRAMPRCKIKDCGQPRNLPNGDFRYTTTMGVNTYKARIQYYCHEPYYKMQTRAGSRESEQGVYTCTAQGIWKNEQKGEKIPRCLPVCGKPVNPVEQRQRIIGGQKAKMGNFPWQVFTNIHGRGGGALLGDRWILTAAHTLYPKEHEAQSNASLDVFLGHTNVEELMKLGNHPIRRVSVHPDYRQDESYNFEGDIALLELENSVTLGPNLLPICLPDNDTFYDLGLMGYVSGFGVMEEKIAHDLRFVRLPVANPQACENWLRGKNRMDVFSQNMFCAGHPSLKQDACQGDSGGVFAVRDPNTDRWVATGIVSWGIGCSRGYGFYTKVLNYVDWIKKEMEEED
Sequence of human C1 (P02745 23-245 partner): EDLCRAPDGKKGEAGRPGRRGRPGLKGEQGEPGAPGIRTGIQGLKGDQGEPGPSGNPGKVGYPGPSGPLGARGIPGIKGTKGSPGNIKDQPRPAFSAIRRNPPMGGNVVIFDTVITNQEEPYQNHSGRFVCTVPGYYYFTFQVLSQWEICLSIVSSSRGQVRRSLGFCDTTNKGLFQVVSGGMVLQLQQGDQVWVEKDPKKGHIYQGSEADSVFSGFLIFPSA
Sequence of human C1 (P02746 28-253 partner): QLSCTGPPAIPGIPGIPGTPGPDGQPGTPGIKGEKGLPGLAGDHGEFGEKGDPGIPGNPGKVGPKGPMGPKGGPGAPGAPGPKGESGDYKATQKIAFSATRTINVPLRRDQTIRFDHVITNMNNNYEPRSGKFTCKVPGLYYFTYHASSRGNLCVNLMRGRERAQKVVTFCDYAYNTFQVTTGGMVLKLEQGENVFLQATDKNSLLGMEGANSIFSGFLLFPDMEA
Sequence of human C1 (P02747 29-245 partner): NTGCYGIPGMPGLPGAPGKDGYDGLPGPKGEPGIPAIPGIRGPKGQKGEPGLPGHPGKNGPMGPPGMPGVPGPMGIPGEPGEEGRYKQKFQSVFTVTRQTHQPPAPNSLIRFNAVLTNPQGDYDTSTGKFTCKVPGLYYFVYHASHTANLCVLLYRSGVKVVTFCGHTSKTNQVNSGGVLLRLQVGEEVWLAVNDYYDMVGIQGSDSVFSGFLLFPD
Excerpt: (§1) An active inhibitor protects C2 from C1 and C4; (ii) Test Code 035 (C3-C9 inhibitor)--This test determines the ability of the late components of human complement (C3-C9) to lyse EAC 142 in the presence of appropriate dilutions of the test compound. An active inhibitor protects EAC 142 from lysis by human C3-C9; (iii) Test Code 036 (C-Shunt inhibitor)--In this test human erythrocytes rendered fragile are lysed in autologous serum via the shunt pathway activated by cobra venom factor in the presence of appropriate dilutions of the test compound. Inhibition of the shunt pathway results in failure of lysis; (iv) Forssman Vasculitis Test--Here, the well known complement dependent lesion, Forssman vasculitis, is produced in guinea pigs by intradermal injection of rabbit anti-Forssman antiserum. The lesion is measured in terms of diameter, edema and hemorrhage and the extent to which a combined index of these is inhibited by prior intraperitoneal injection of the test compound at 200 mg/kg is then reported, unless otherwise stated; (v) Forssman Shock Test--Lethal shock is produced in guinea pigs by an i.v. injection of anti-Forssman antiserum and the harmonic mean death time of treated guinea pigs is compared with that of the simultaneous controls; (vi) Complement Level Reduction Test--In this test, the above dosed guinea pigs, or others are bled for serum and the complmenet level is determined in undiluted serum by the capillary tube method of U.S. Pat. No. 3,876,376 and compared to undosed control guinea pigs; (vii) Cap 50 Test--Here, appropriate amounts of the test compound are added to a pool of guinea pig serum in vitro, after which the undiluted serum capillary tube assay referred to above is run. The concentration of compound inhibiting 50% is reported.
(§2) **Activity in wells, a serial dilution assay; higher well number indicate
(§3) higher activity. The serial dilutions are twofold-

human complement (C3-C9) = assay: Test Code 035 (C3-C9 inhibitor): lysis of EAC 142 by late components of human complement; assay type: biochemical; conditions: activity in wells, twofold serial dilution; higher well number indicates higher activity
Excerpt: as §1, §2, §3

shunt pathway = assay: Test Code 036 (C-Shunt inhibitor): lysis of human erythrocytes in autologous serum via shunt pathway activated by cobra venom factor; assay type: biochemical; conditions: activity in wells, twofold serial dilution; higher well number indicates higher activity
Excerpt: as §1, §2, §3

whole complement = assay: In vivo activity (Guinea Pig): serum whole complement by capillary tube assay after dosing; conditions: Intraperitoneal, 200 mg/kg
[1] = test system: hereditary angio-neurotic edema; conditions: reported in the literature; cited from earlier work
[2] = test system: total hemolytic complement activity; conditions: in vitro and in vivo, as judged by reduction in total hemolytic complement activity; cited from earlier work

Molecule: Nc1ccc2cc(S(=O)(=O)[O-])cc(O)c2c1N=Nc1ccc(NC(=O)Nc2ccc(N=Nc3c(N)ccc4cc(S(=O)(=O)[O-])cc(O)c34)c(S(=O)(=O)[O-])c2)cc1S(=O)(=O)[O-].[Na+].[Na+].[Na+].[Na+] [chlorazol fast pink, 3,3'-ureylenebis[6-(2-amino-8-hydroxy-6-sulfo-1-naphthylazo)benzenesulfonic acid], tetrasodium salt]
- anticomplementary effect (complement system): anticomplementary effect

Molecule: O=S(=O)(O)OC[C@H]1O[C@H](OC[C@H]2O[C@@H](OC[C@H]3O[C@H](OC[C@H]4O[C@H](OS(=O)(=O)O)[C@H](OS(=O)(=O)O)[C@@H](OS(=O)(=O)O)[C@@H]4OS(=O)(=O)O)[C@H](OS(=O)(=O)O)[C@@H](OS(=O)(=O)O)[C@H]3OS(=O)(=O)O)[C@H](OS(=O)(=O)O)[C@@H](OS(=O)(=O)O)[C@@H]2OS(=O)(=O)O)[C@H](OS(=O)(=O)O)[C@@H](OS(=O)(=O)O)[C@H]1OS(=O)(=O)O [drawing 9, O-α-D-galactopyranosyl(1→6)-O-β-D-glucopyranosyl(1→6)-O-α-D-galactopyranosyl(1→6)-α-D-glucopyranose [gal 1α,6 glc 1β,6 gal 1α,6 glc] tetradecakis (H-sulfate), tetradecasodium salt]
- C1 026 Wells (human C1): +9 Wells
- C-Late 035 Wells (human complement (C3-C9)): +1 Wells
- Shunt Inhibition 036 Wells (shunt pathway): +6 Wells
- In vivo Activity (Guinea Pig) % Inhibition (whole complement; 30 min): -44%
- In vivo Activity (Guinea Pig) % Inhibition (whole complement; 60 min): -55%
- In vivo Activity (Guinea Pig) % Inhibition (whole complement; 120 min): -80%

Molecule: O=S(=O)(O)OC[C@H]1O[C@@H](OC[C@H]2O[C@H](OC[C@H]3OC(OS(=O)(=O)O)[C@H](OS(=O)(=O)O)[C@@H](OS(=O)(=O)O)[C@@H]3OS(=O)(=O)O)[C@H](OS(=O)(=O)O)[C@@H](OS(=O)(=O)O)[C@H]2OS(=O)(=O)O)[C@H](OS(=O)(=O)O)[C@@H](OS(=O)(=O)O)[C@@H]1O[C@H]1O[C@H](COS(=O)(=O)O)[C@@H](OS(=O)(=O)O)[C@H](OS(=O)(=O)O)[C@H]1OS(=O)(=O)O (stereo partly drawn) [drawing 11, O-α-D-glucopyranosyl(1→4)-O-β-D-glucopyranosyl(1→6)-O-α-D-galactopyranosyl(1→6)-D-glucopyranose [glc 1α,4 glc 1β,6 gal 1α,6 glc] tetradecakis (H-sulfate), tetradecasodium salt]
- C1 026 Wells (human C1): +10 Wells
- C-Late 035 Wells (human complement (C3-C9)): +1 Wells
- Shunt Inhibition 036 Wells (shunt pathway): +6 Wells
- In vivo Activity (Guinea Pig) % Inhibition (whole complement; 30 min): -54%
- In vivo Activity (Guinea Pig) % Inhibition (whole complement; 60 min): -45%
- In vivo Activity (Guinea Pig) % Inhibition (whole complement; 120 min): -39%

Molecule: O=S(=O)(O)OC[C@H]1O[C@@H](OC[C@H]2O[C@H](OC[C@H]3OC(OS(=O)(=O)O)[C@H](OS(=O)(=O)O)[C@@H](OS(=O)(=O)O)[C@@H]3OS(=O)(=O)O)[C@H](OS(=O)(=O)O)[C@@H](OS(=O)(=O)O)[C@H]2OS(=O)(=O)O)[C@H](OS(=O)(=O)O)[C@@H](OS(=O)(=O)O)[C@@H]1O[C@H]1O[C@H](COS(=O)(=O)O)[C@@H](O[C@H]2O[C@H](COS(=O)(=O)O)[C@@H](O[C@H]3O[C@H](COS(=O)(=O)O)[C@@H](O[C@H]4O[C@H](COS(=O)(=O)O)[C@@H](O[C@H]5O[C@H](COS(=O)(=O)O)[C@@H](O[C@H]6O[C@H](COS(=O)(=O)O)[C@@H](OS(=O)(=O)O)[C@H](OS(=O)(=O)O)[C@H]6OS(=O)(=O)O)[C@H](OS(=O)(=O)O)[C@H]5OS(=O)(=O)O)[C@H](OS(=O)(=O)O)[C@H]4OS(=O)(=O)O)[C@H](OS(=O)(=O)O)[C@H]3OS(=O)(=O)O)[C@H](OS(=O)(=O)O)[C@H]2OS(=O)(=O)O)[C@H](OS(=O)(=O)O)[C@H]1OS(=O)(=O)O (stereo partly drawn) [drawing 17, O-α-D-glucopyranosyl(1→4)-O-α-D-glucopyranosyl(1→4)-O-α-D-glucopyranosyl(1→4)-O-α-D-glucopyranosyl(1→4)-O-α-D-glucopyranosyl(1→4)-O-α-D-glucopyranosyl(1→4)-O-β-D-glucopyranosyl(1→6)-O-α-D-galactopyranosyl(1→6)-D-glucopyranose [(glc 1α,4)6 glc 1β,6 gal 1α,6 glc] nonacosakis (H-sulfate), non-acosasodium salt]
- C1 026 Wells (human C1): +9 Wells
- C-Late 035 Wells (human complement (C3-C9)): +3 Wells
- Shunt Inhibition 036 Wells (shunt pathway): +5 Wells

Molecule: NCCCCCC(=O)O [epsilon-aminocaproic acid]
- treatment of hereditary angio-neurotic edema [1]: used with success

Molecule: NC[C@H]1CC[C@H](C(=O)O)CC1 [tranexamic acid]
- treatment of hereditary angio-neurotic edema [1]: used with success

Molecule: heparin
- anticomplementary effect (complement system): anticomplementary effect

Molecule: pentosan-polysulfoester
- anticomplementary activity on human serum [2]: anticomplementary activity on human serum, both in vitro and in vivo
